Results on 19 compounds are retold here after patent US11866450B2, “Modulators of Cystic Fibrosis Transmembrane Conductance regulator, pharmaceutical compositions, methods of treatment, and process for making the modulators” (priority 2018, dated 2024).

The assay concerns the target CFTR-mediated chloride transport (Homo sapiens, UniProt P13569). The assay is classed as cell-based. The note with it: enteroid cells incubated with test compound 18-24 hours, acute 10 μM forskolin and 300 nM Compound III; for Max. Activity: % of chloride transport with 3 μM Compound A, 3 μM Compound II and 300 nM acute Compound III triple combination control. Put shortly:
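Membrane-potential fluorescence AUC over 15 min quantified CFTR chloride transport after acute forskolin (10 μM), IBMX (100 μM) and Compound III (300 nM) in chloride-free buffer. Human enteroid cells were pretreated with compound for 18–24 h; % Activity is relative to 3 μM Compound A + 3 μM Compound II + 300 nM Compound III.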

CFTR-mediated chloride transport, sequence (P13569 whole entry, looked up): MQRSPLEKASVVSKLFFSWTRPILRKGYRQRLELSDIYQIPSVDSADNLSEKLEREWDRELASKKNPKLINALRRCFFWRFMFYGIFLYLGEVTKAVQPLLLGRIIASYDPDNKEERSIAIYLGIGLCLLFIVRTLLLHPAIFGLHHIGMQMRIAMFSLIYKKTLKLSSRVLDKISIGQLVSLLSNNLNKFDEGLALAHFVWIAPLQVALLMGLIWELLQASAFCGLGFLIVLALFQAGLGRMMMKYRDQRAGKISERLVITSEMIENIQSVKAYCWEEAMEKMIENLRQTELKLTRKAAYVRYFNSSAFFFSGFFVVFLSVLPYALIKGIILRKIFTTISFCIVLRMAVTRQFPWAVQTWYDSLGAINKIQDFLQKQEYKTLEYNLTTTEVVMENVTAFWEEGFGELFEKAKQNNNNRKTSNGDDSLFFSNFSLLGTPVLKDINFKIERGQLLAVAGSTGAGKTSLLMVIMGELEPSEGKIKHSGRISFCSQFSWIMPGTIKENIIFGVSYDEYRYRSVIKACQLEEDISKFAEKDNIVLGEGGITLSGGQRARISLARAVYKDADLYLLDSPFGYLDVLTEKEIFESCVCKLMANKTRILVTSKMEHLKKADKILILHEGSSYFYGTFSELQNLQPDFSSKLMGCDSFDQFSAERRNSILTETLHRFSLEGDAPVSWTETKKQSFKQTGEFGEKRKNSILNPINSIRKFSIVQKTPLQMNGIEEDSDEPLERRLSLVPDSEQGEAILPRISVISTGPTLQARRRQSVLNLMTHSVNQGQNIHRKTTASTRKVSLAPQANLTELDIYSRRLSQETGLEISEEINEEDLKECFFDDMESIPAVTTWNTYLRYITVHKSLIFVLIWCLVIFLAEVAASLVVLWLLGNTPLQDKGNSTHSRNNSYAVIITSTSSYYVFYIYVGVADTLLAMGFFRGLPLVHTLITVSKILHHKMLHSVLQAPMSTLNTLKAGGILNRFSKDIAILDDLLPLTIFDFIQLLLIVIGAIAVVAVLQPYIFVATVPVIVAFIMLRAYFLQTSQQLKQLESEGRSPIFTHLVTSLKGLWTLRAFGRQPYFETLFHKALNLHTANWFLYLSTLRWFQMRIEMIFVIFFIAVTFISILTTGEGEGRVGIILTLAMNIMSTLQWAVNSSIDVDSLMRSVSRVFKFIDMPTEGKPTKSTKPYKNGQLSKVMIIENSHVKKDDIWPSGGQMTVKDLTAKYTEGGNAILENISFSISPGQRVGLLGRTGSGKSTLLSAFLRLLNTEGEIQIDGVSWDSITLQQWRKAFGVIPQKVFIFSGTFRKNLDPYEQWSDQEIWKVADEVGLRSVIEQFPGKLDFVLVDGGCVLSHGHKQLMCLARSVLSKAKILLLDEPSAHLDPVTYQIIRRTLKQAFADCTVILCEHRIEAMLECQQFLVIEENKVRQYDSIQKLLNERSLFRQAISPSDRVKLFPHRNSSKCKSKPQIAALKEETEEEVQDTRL

The term EC50 denotes the concentration that produces a half-maximal response. Take `CC1(C)C[C@@H]2CCCNc3ccc(O)c(n3)S(=O)(=O)NC(=O)c3ccc(-n4ccc(OCCCC5(C(F)(F)F)CC5)n4)nc3N1C2` [Compound 261, (14S)-22-hydroxy-12,12-dimethyl-8-(3-{3-[1-(trifluoromethyl)cyclopropyl]propoxy}-1H-pyrazol-1-yl)-2λ^6-thia-3,9,11,18,23-pentaazatetracyclo[17.3.1.111,14.05,10]tetracosa-1(22),5,7,9,19(23),20-hexaene-2,2,4-trione]: the concentration for a half-maximal effect (EC50) is < 1000 nM and the “Max. Activity” value is listed as “++ (++ is 30-60%)”.
As to `CC1(C)C[C@@H]2CCCNc3cccc(n3)S(=O)(=O)NC(=O)c3ccc(N4CCC(OCCC(C)(C)C(F)(F)F)C4=O)nc3N1C2` (stereo partly drawn) [Compound 237, (14S)-12,12-dimethyl-8-[2-oxo-3-(4,4,4-trifluoro-3,3-dimethylbutoxy)pyrrolidin-1-yl]-2λ^6-thia-3,9,11,18,23-pentaazatetracyclo[17.3.1.111,14.05,10]tetracosa-1(22),5,7,9,19(23),20-hexaene-2,2,4-trione], the half-maximal effective concentration (EC50) was < 1000 nM and the “Max. Activity” value was “+++ (+++ is >60%)”.
Turning to `CC1(C)C[C@@H]2CCCNc3cccc(n3)S(=O)(=O)NC(=O)c3ccc(-n4ccc(OC[C@@H](O)C5C6(CC6)C56CC6)n4)nc3N1C2` (single isomer, unassigned) [Compound 293], the half-maximal effective concentration (EC50) is < 1000 nM and the “Max. Activity” value is listed as “+++ (+++ is >60%)”.
For `CC1(C)C[C@@H]2CCCNc3cccc(n3)S(=O)(=O)NC(=O)c3ccc(N4CC[C@H](OCCC5(C(F)(F)F)CC5)C4=O)nc3N1C2` (single isomer, unassigned) [Compound 173] the same measures were < 1000 nM and “+++ (+++ is >60%)”.
In the case of `CC1(C)C[C@@H]2CCCNc3cccc(n3)S(=O)(=O)NC(=O)c3ccc(N4CCN(CCC(C)(C)C(F)(F)F)C4=O)nc3N1C2` [Compound 223, (14S)-12,12-Dimethyl-8-[2-oxo-3-(4,4,4-trifluoro-3,3-dimethylbutyl)imidazolidin-1-yl]-2λ^6-thia-3,9,11,18,23-pentaazatetracyclo[17.3.1.111,14.05,10]tetracosa-1(22),5,7,9,19(23),20-hexaene-2,2,4-trione], the half-maximal effective concentration (EC50) was < 1000 nM and the “Max. Activity” value was “+++ (+++ is >60%)”.
On the same counts, the results for `CC1(C)C[C@@H]2CCCNc3cccc(n3)S(=O)(=O)NC(=O)c3ccc(N4CC[C@H](CCC5C6(CC6)C56CC6)C4=O)nc3N1C2` (single isomer, unassigned) [Compound 178] are < 1000 nM and “+++ (+++ is >60%)”.
In the case of `CC1(C)C[C@@H]2CCCNc3ccc(O)c(n3)S(=O)(=O)NC(=O)c3ccc(-n4ccc(OCCC5C6(CC6)C56CC6)n4)nc3N1C2` [Compound 260, (14S)-8-[3-(2-{dispiro[2.0.2.1]heptan-7-yl}ethoxy)-1H-pyrazol-1-yl]-22-hydroxy-12,12-dimethyl-2λ^6-thia-3,9,11,18,23-pentaazatetracyclo[17.3.1.111,14.05,10]tetracosa-1(22),5,7,9,19(23),20-hexaene-2,2,4-trione], the EC50 is < 1000 nM and the “Max. Activity” value was “+++ (+++ is >60%)”.
For `CC1(C)C[C@H]2CCNc3cccc(n3)S(=O)(=O)NC(=O)c3ccc(-n4ccc(OCCC5(C(F)(F)F)CC5)n4)nc3N1C2` (single isomer, unassigned) [Compound 26, 7,7-dimethyl-11-(3-{2-[1-(trifluoromethyl)cyclopropyl]ethoxy}-1H-pyrazol-1-yl)-17λ^6-thia-2,8,10,16,22-pentaazatetracyclo[16.3.1.15,8.09,14]tricosa-1(21),9,11,13,18(22),19-hexaene-15,17,17-trione], the 50% effective concentration (EC50) is < 1000 nM and the “Max. Activity” value is recorded as “+++ (+++ is >60%)”.
For `CC(C)(C)CCCC1CCN(c2ccc3c(n2)N2C[C@@H](CCCNc4cccc(n4)S(=O)(=O)NC3=O)CC2(C)C)C1=O` (stereo partly drawn) [Compound 102, (14S)-8-[3-(4,4-Dimethylpentyl)-2-oxopyrrolidin-1-yl]-12,12-dimethyl-2λ^6-thia-3,9,11,18,23-pentaazatetracyclo[17.3.1.111,14.05,10]tetracosa-1(22),5,7,9,19(23),20-hexaene-2,2,4-trione] the same measures were < 1000 nM and “+++ (+++ is >60%)”.
For the compound `CC1(C)C[C@@H]2CCCNc3cccc(n3)S(=O)(=O)NC(=O)c3ccc(-n4ccc(OC[C@@H](O)C5C6(CC6)C56CC6)n4)nc3N1C2` (single isomer, unassigned) [Compound 294], the concentration for a half-maximal effect (EC50) lay within 1000 to 3000 nM and the “Max. Activity” value is “+++ (+++ is >60%)”.
Turning to `Cc1nn2cc1S(=O)(=O)NC(=O)c1ccc(-n3ccc(OCCC4(C(F)(F)F)CC4)n3)nc1N1C[C@H](CCCC2)CC1(C)C` (single isomer, unassigned) [Compound 91, 12,21,21-Trimethyl-4-(3-{2-[1-(trifluoromethyl)cyclopropyl]ethoxy}-1H-pyrazol-1-yl)-10λ^6-thia-1,3,9,13,14-pentaazatetracyclo[17.2.1.111,14.02,7]tricosa-2,4,6,11(23),12-pentaene-8,10,10-trione], the EC50 is > 3000 nM and the “Max. Activity” value is given as “+ (+ is <30%)”.
`CC(C)C(COc1ccn(-c2ccc3c(n2)N2C[C@@H](CC2(C)C)OCCNc2cccc(n2)S(=O)(=O)NC3=O)n1)C(C)C` (single isomer, unassigned) [Compound 248, 12,12-dimethyl-8-{3-[3-methyl-2-(propan-2-yl)butoxy]-1H-pyrazol-1-yl}-15-oxa-2λ^6-thia-3,9,11,18,23-pentaazatetracyclo[17.3.1.111,14.05,10]tetracosa-1(23),5(10),6,8,19,21-hexaene-2,2,4-trione]: the EC50 was < 1000 nM and the “Max. Activity” value was “++ (++ is 30-60%)”.
As to `CC(C)(C)COc1ccn(-c2ccc3c(n2)N2C[C@H](CCNc4cccc(n4)S(=O)(=O)NC3=O)CC2(C)C)n1` (single isomer, unassigned) [Compound 3, 11-[3-(2,2-dimethylpropoxy)-1H-pyrazol-1-yl]-7,7-dimethyl-17λ^6-thia-2,8,10,16,22-pentaazatetracyclo[16.3.1.15,8.09,14]tricosa-1(21),9(14),10,12,18(22),19-hexaene-15,17,17-trione], the EC50 is < 1000 nM and the “Max. Activity” value is given as “+++ (+++ is >60%)”.
For the compound `CC1(C)C[C@H]2CCCn3ccc(n3)S(=O)(=O)NC(=O)c3ccc(-n4ccc(OCCC(C5CC5)C5CC5)n4)nc3N1C2` (single isomer, unassigned) [Compound 154, 4-[3-(3,3-dicyclopropylpropoxy)-1H-pyrazol-1-yl]-20,20-dimethyl-10λ^6-thia-1,3,9,14,22-pentaazatetracyclo[16.2.1.111,14.02,7]docosa-2,4,6,11(22),12-pentaene-8,10,10-trione], the concentration giving a half-maximal response (EC50) is < 1000 nM and the “Max. Activity” value was “+++ (+++ is >60%)”.
On the same counts, the results for `CC(C)(C)CCCO[C@H]1CCN(c2ccc3c(n2)N2C[C@@H](CCCNc4cccc(n4)S(=O)(=O)NC3=O)CC2(C)C)C1=O` (single isomer, unassigned) [Compound 246] are < 1000 nM and “++ (++ is 30-60%)”.
On the same counts, the results for `CC1(C)C[C@H]2CCCCn3cc(cn3)S(=O)(=O)NC(=O)c3ccc(-n4ccc(OCCC5(C(F)(F)F)CC5)n4)nc3N1C2` (single isomer, unassigned) [Compound 134, 21,21-Dimethyl-4-(3-{2-[1-(trifluoromethyl)cyclopropyl]ethoxy}-1H-pyrazol-1-yl)-10λ^6-thia-1,3,9,13,14-pentaazatetracyclo[17.2.1.111,14.02,7]tricosa-2,4,6,11(23),12-pentaene-8,10,10-trione] are < 1000 nM and “+ (+ is <30%)”.
For `CC1(C)C[C@H]2CCCNc3cccc(n3)S(=N)(=O)NC(=O)c3ccc(-n4ccc(OCCC5(C(F)(F)F)CC5)n4)nc3N1C2` (single isomer, unassigned) [Compound 271, 2-Imino-12,12-dimethyl-8-(3-{2-[1-(trifluoromethyl)cyclopropyl]ethoxy}-1H-pyrazol-1-yl)-2λ^6-thia-3,9,11,18,23-pentaazatetracyclo[17.3.1.111,14.05,10]tetracosa-1(23),5,7,9,19,21-hexaene-2,4-dione] the same measures were < 1000 nM and “+++ (+++ is >60%)”.
With `CC1(C)C[C@H]2CCCNc3cccc(n3)S(=N)(=O)NC(=O)c3ccc(-n4ccc(OCCC5(C(F)(F)F)CC5)n4)nc3N1C2` (single isomer, unassigned) [Compound 266, 2-Imino-12,12-dimethyl-8-(3-{2-[1-(trifluoromethyl)cyclopropyl]ethoxy}-1H-pyrazol-1-yl)-2λ^6-thia-3,9,11,18,23-pentaazatetracyclo[17.3.1.111,14.05,10]tetracosa-1(23),5,7,9,19,21-hexaene-2,4-dione], the half-maximal effective concentration (EC50) is < 1000 nM and the “Max. Activity” value is given as “++ (++ is 30-60%)”.
On the same counts, the results for `CC1(C)C[C@H]2CNc3cccc(n3)S(=O)(=O)NC(=O)c3ccc(-n4ccc(OCCC5(C(F)(F)F)CC5)n4)nc3N1C2` (single isomer, unassigned) [Compound 25, 6,6-dimethyl-10-(3-{2-[1-(trifluoromethyl)cyclopropyl]ethoxy}-1H-pyrazol-1-yl)-16λ^6-thia-2,7,9,15,21-pentaazatetracyclo[15.3.1.14,7.08,13]docosa-1(20),8,10,12,17(21),18-hexaene-14,16,16-trione] are < 1000 nM and “++ (++ is 30-60%)”.
